This note sets out measurements from patent US7267994B2, “Element-coded affinity tags” (Regents of the University of California, priority 2003, dated 2007).

Test [1] relates to antibody 2D12.5. The test is described as follows: relative binding curves of 2D12.5 for Y-DOTA isomers and side chain variants. The arrangement: species or system murine. Conditions: for relative binding affinity for 2D12.5, isomers: coordinated metal Y^3+, FIG. 15; for relative binding affinity for 2D12.5, side chain location: Y-DOTA molecule with different side chain locations, FIG. 6. The text has this: FIG. 6 is a graphical display showing the relative binding curves of an exemplary metal chelate, the Y-DOTA molecule, with different side chain locations. […] Evaluation of the crystal structure seems to indicate that shorter substitutions at this position may bind with higher affinity. Substitutions at other locations may yield reasonably high affinities as well. The (5-Amino-2-methoxy-phenyl)-carboxymethyl)-DOTA analyzed in this experiment was racemic, so it is not clear which isomer binds with higher affinity. The low pKa of the carboxymethyl proton makes it difficult to prepare a chirally pure molecule.
FIG. 15 is a graphical display showing the relative binding curves of 2D12.5 for Y-DOTA isomers and Y-DTPA. 2D12.5 binds both the (R)- and (S)- isomers of 2-(4-nitrobenzyl)-DOTA when the coordinated metal is Y^3+ (the same behavior is expected for the other rare earths). The (S)-isomer confers Λ-helicity, while the (R)-isomer confers Δ-helicity to the acetate arms. […] Y-DOTA (no-sidearm) exists is solution as a racemic mixture of the coordination isomers.

Test [2] relates to antibody 2D12.5. The test is described as follows: competitive immunoassay (ELISA) of metal-DOTA complexes relative to Y-DOTA. Type of test: binding, murine. The settings on record: metal complexes of [S]-2-(p-nitrobenzyl)-DOTA, 37° C. An excerpt: FIG. 13 is graphical display showing the relative binding of metal-DOTA complexes to antibody 2D12.5. A representative set of competitive binding curves obtained from ELISA experiments described in Example 3 below. Error bars (representing the standard error of the mean) are shown, but are generally smaller than the data points.
To determine the metal selectivity of the antibody 2D12.5, a competitive immunoassay was used to measure the binding constants of multiple metal-DOTA complexes relative to Y^3+-DOTA.
We examined the monoclonal antibody 2D12.5, initially developed to bind specifically to Y-DOTA for targeted radiotherapy (see, e.g., Goodwin et al., Cancer Res. 54: 5937-5946 (1994)), in order to determine the scope of its activity. To assess the metal selectivity of antibody 2D12.5, a competitive immunoassay to measure the binding constants of various metal-DOTA complexes relative to the original Y^3+ complex was developed (FIG. 13). Briefly, 2D12.5 was incubated at 37° C. in the presence of immobilized Y-DOTA and a soluble metal-DOTA competitor. The metal-DOTA concentration was varied from μM to pM in order to determine the relative binding affinity of 2D12.5 for each metal chelate in comparison to Y-DOTA. Binding was measured by standard methods known to those of skill in the art. […]
Target sequence in this assay (as listed by the source): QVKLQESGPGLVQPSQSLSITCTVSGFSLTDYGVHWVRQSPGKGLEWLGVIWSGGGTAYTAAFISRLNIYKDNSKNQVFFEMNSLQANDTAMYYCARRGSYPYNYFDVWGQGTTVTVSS
Target sequence in this assay (as listed by the source): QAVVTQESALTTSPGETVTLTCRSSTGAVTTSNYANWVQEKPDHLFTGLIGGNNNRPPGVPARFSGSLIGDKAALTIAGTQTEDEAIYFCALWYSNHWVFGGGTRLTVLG

Consider `O=C(O)CN1CCN(CC(=O)O)CCN(CC(=O)O)C(Cc2ccc([N+](=O)[O-])cc2)CN(CC(=O)O)CC1` (single isomer, unassigned; isomer 2) [(R)-isomer, 2-(4-nitrobenzyl)-DOTA], for which the “relative binding affinity for 2D12.5, isomers” value with antibody 2D12.5 [1] is on record as “affinity decreases less than an order of magnitude”.
Take `O=C(O)CN1CCN(CC(=O)O)CCN(CC(=O)O)[C@@H](Cc2ccc([N+](=O)[O-])cc2)CN(CC(=O)O)CC1` [(S)-2-(4-nitrobenzyl)-DOTA, (S)-2-(4-nitro-benzyl)-1,4,7,10-tetraazacyclododecane-N,N′,N″,N′″-tetraacetic acid]: in the test on antibody 2D12.5 [1], the “relative binding affinity for 2D12.5, side chain location” value is recorded as “clearly stronger” and the “relative binding affinity for 2D12.5, isomers” value is recorded as “preferred isomer for binding”.
With Gd-DOTA, the “binding to 2D12.5 compared with the Y^3+ complex” value in the test with antibody 2D12.5 [2] is “bind more tightly than the original Y^3+ complex”; in the test on antibody 2D12.5 [2] (listed as Gd^3+) it was “strongest binders”.
In the case of “(5-Amino-2-methoxy-phenyl)-carboxymethyl)-DOTA”, in the test on antibody 2D12.5 [1], the “relative binding affinity for 2D12.5, side chain location” value is recorded as “still sufficiently strong”.
